Values of other authors as cited in patent US7459460B2, “Trisubstituted heteroaromatic compounds as calcium sensing receptor modulators” (Bristol-Myers Squibb Company, priority 2003, dated 2008).

How the values were obtained:
[1] = OVX rats, oral administration, in the presence of an anti-resorptive agent
[2] = intravenous bolus injection
[3] = postmenopausal women, placebo-controlled trial

| Molecule | bone mass [1] | serum PTH [2] | reduce the risk of non-traumatic, non-spine fractures [3] | reduce the risk of spine fractures [3] |
| --- | --- | --- | --- | --- |
| CC(C)(Cc1ccc2ccccc2c1)NC[C@@H](O)COc1cccc(Cl)c1C#N [NPS-2143] | increase in bone mass | transient increase in serum PTH |  |  |
| PTH peptide fragment (1-34): the PTH peptide fragment (1-34) of parathyroid hormone (SVSEIQLMHNLGKHLNSMERVEWLRKKLQDVHNF; Parathyroid hormone; UniProt P01270 32-65, looked up, fragment) |  |  | 54% | 65% |
